Assay results published in PubChem BioAssay (NCI).
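Test compounds were applied to cells in 96-well plates for 48 hours at 5 doses. The concentration for 50% growth inhibition is given as GI50. TGI marks complete inhibition of growth.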

Experiments:
Experiment in all cases: NCI tumour cell line growth inhibition, 48 h
MDA-MB-231 breast = test system: MDA-MB-231 breast
SF-539 CNS = test system: SF-539 CNS
RXF 393 renal = test system: RXF 393 renal
NCI-H460 lung = test system: NCI-H460 lung
OVCAR-4 ovarian = test system: OVCAR-4 ovarian
M14 melanoma = test system: M14 melanoma
PC-3 prostate = test system: PC-3 prostate
SNB-19 CNS = test system: SNB-19 CNS
OVCAR-8 ovarian = test system: OVCAR-8 ovarian
SF-295 CNS = test system: SF-295 CNS
UO-31 renal = test system: UO-31 renal
TK-10 renal = test system: TK-10 renal
HCC-2998 colon = test system: HCC-2998 colon
NCI-H23 lung = test system: NCI-H23 lung
UACC-257 melanoma = test system: UACC-257 melanoma
SK-MEL-5 melanoma = test system: SK-MEL-5 melanoma
HCT-116 colon = test system: HCT-116 colon
COLO 205 colon = test system: COLO 205 colon
SK-MEL-2 melanoma = test system: SK-MEL-2 melanoma
KM12 colon = test system: KM12 colon
BT-549 breast = test system: BT-549 breast
CAKI-1 renal = test system: CAKI-1 renal
HOP-62 NSCLC = test system: HOP-62 NSCLC
OVCAR-3 ovarian = test system: OVCAR-3 ovarian
T-47D breast = test system: T-47D breast
SK-MEL-28 melanoma = test system: SK-MEL-28 melanoma
OVCAR-5 ovarian = test system: OVCAR-5 ovarian
SK-OV-3 ovarian = test system: SK-OV-3 ovarian
LOX IMVI melanoma = test system: LOX IMVI melanoma
SW-620 colon = test system: SW-620 colon
EKVX NSCLC = test system: EKVX NSCLC
ACHN renal = test system: ACHN renal
MOLT-4 leukemia = test system: MOLT-4 leukemia
NCI-H226 lung = test system: NCI-H226 lung
DU-145 prostate = test system: DU-145 prostate
UACC-62 melanoma = test system: UACC-62 melanoma
NCI-H522 lung = test system: NCI-H522 lung
SF-268 CNS = test system: SF-268 CNS
IGROV1 ovarian = test system: IGROV1 ovarian
HCT-15 colon = test system: HCT-15 colon
MDA-MB-435 = test system: MDA-MB-435
MCF7 breast = test system: MCF7 breast
CCRF-CEM leukemia = test system: CCRF-CEM leukemia
SNB-75 CNS = test system: SNB-75 CNS
RPMI-8226 leukemia = test system: RPMI-8226 leukemia
786-0 renal = test system: 786-0 renal
MALME-3M melanoma = test system: MALME-3M melanoma
A498 renal = test system: A498 renal
HS 578T breast = test system: HS 578T breast
HT29 colon = test system: HT29 colon
HOP-92 NSCLC = test system: HOP-92 NSCLC
HL-60(TB) leukemia = test system: HL-60(TB) leukemia
SN12C renal = test system: SN12C renal
NCI/ADR-RES ovarian = test system: NCI/ADR-RES ovarian
A549 NSCLC = test system: A549 NSCLC

Structure (SMILES): C=CC(=O)Nc1cc(N2CCN(CC)CC2)ccc1Nc1cc(N(C)C(=O)Nc2c(Cl)c(OC)cc(OC)c2Cl)ncn1
- GI50 (MDA-MB-231 breast): 3.26 µM
- TGI (MDA-MB-231 breast): 11.5 µM
- GI50 (SF-539 CNS): 3.53 µM
- TGI (SF-539 CNS): 15.2 µM
- GI50 (RXF 393 renal): 2.98 µM
- TGI (RXF 393 renal): 9.76 µM
- GI50 (NCI-H460 lung): 7.67 µM
- TGI (NCI-H460 lung): 24.7 µM
- GI50 (OVCAR-4 ovarian): 5.35 µM
- TGI (OVCAR-4 ovarian): 22.9 µM
- GI50 (M14 melanoma): 4.85 µM
- TGI (M14 melanoma): 18.7 µM
- GI50 (PC-3 prostate): 5.05 µM
- TGI (PC-3 prostate): 20.8 µM
- GI50 (SNB-19 CNS): 5.05 µM
- TGI (SNB-19 CNS): 17.5 µM
- GI50 (OVCAR-8 ovarian): 4.38 µM
- TGI (OVCAR-8 ovarian): 18.1 µM
- GI50 (SF-295 CNS): 16.7 µM
- TGI (SF-295 CNS): 31.8 µM
- GI50 (UO-31 renal): 8.53 µM
- TGI (UO-31 renal): 22.2 µM
- GI50 (TK-10 renal): 10.6 µM
- TGI (TK-10 renal): 26 µM
- GI50 (HCC-2998 colon): 2.49 µM
- TGI (HCC-2998 colon): 6.3 µM
- GI50 (NCI-H23 lung): 4.36 µM
- TGI (NCI-H23 lung): 20 µM
- GI50 (UACC-257 melanoma): 13.5 µM
- TGI (UACC-257 melanoma): 30.1 µM
- GI50 (SK-MEL-5 melanoma): 11.3 µM
- TGI (SK-MEL-5 melanoma): 23.9 µM
- GI50 (HCT-116 colon): 3.37 µM
- TGI (HCT-116 colon): 14.2 µM
- GI50 (COLO 205 colon): 4.16 µM
- TGI (COLO 205 colon): 18.3 µM
- GI50 (SK-MEL-2 melanoma): 13 µM
- TGI (SK-MEL-2 melanoma): 27.3 µM
- GI50 (KM12 colon): 3.09 µM
- TGI (KM12 colon): 10.3 µM
- GI50 (BT-549 breast): 3.07 µM
- TGI (BT-549 breast): 15.1 µM
- GI50 (CAKI-1 renal): 11.1 µM
- TGI (CAKI-1 renal): 23.1 µM
- GI50 (HOP-62 NSCLC): 11.9 µM
- TGI (HOP-62 NSCLC): 28.8 µM
- GI50 (OVCAR-3 ovarian): 3.49 µM
- TGI (OVCAR-3 ovarian): 15.4 µM
- GI50 (T-47D breast): 3.3 µM
- TGI (T-47D breast): 26.4 µM
- GI50 (SK-MEL-28 melanoma): 2.03 µM
- TGI (SK-MEL-28 melanoma): 4.53 µM
- GI50 (OVCAR-5 ovarian): 19.4 µM
- TGI (OVCAR-5 ovarian): 51.2 µM
- GI50 (SK-OV-3 ovarian): 12.3 µM
- TGI (SK-OV-3 ovarian): 27.5 µM
- GI50 (LOX IMVI melanoma): 2.82 µM
- TGI (LOX IMVI melanoma): 11.9 µM
- GI50 (SW-620 colon): 3.29 µM
- TGI (SW-620 colon): 11.7 µM
- GI50 (EKVX NSCLC): 12.4 µM
- TGI (EKVX NSCLC): 35.9 µM
- GI50 (ACHN renal): 11.5 µM
- TGI (ACHN renal): 23.8 µM
- GI50 (MOLT-4 leukemia): 3.01 µM
- TGI (MOLT-4 leukemia): 13.4 µM
- GI50 (NCI-H226 lung): 14.2 µM
- TGI (NCI-H226 lung): 35.8 µM
- GI50 (DU-145 prostate): 4.27 µM
- TGI (DU-145 prostate): 16.4 µM
- GI50 (UACC-62 melanoma): 12.8 µM
- TGI (UACC-62 melanoma): 27.3 µM
- GI50 (NCI-H522 lung): 4.77 µM
- TGI (NCI-H522 lung): 20.3 µM
- GI50 (SF-268 CNS): 5.53 µM
- TGI (SF-268 CNS): 27.7 µM
- GI50 (IGROV1 ovarian): 2.58 µM
- TGI (IGROV1 ovarian): 7.35 µM
- GI50 (HCT-15 colon): 6.25 µM
- TGI (HCT-15 colon): 21.3 µM
- GI50 (MDA-MB-435): 3.47 µM
- TGI (MDA-MB-435): 14.4 µM
- GI50 (MCF7 breast): 2.7 µM
- TGI (MCF7 breast): 19.2 µM
- GI50 (CCRF-CEM leukemia): 3.02 µM
- TGI (CCRF-CEM leukemia): 11.2 µM
- GI50 (SNB-75 CNS): 2.48 µM
- TGI (SNB-75 CNS): 14.2 µM
- GI50 (RPMI-8226 leukemia): 2.37 µM
- TGI (RPMI-8226 leukemia): 7.22 µM
- GI50 (786-0 renal): 2.97 µM
- TGI (786-0 renal): 12.1 µM
- GI50 (MALME-3M melanoma): 5.06 µM
- TGI (MALME-3M melanoma): 19.3 µM
- GI50 (A498 renal): 2.18 µM
- TGI (A498 renal): 8.53 µM
- GI50 (HS 578T breast): 4.77 µM
- TGI (HS 578T breast): 40.8 µM
- GI50 (HT29 colon): 2.24 µM
- TGI (HT29 colon): 5.29 µM
- GI50 (HOP-92 NSCLC): 4.94 µM
- TGI (HOP-92 NSCLC): 21.7 µM
- GI50 (HL-60(TB) leukemia): 4.91 µM
- TGI (HL-60(TB) leukemia): 25.3 µM
- GI50 (SN12C renal): 2.84 µM
- TGI (SN12C renal): 9.72 µM
- GI50 (NCI/ADR-RES ovarian): 20.5 µM
- TGI (NCI/ADR-RES ovarian): 70.5 µM
- GI50 (A549 NSCLC): 11.7 µM
- TGI (A549 NSCLC): 37.6 µM
